# Test results taken from PubChem BioAssay AID1963965 (Molecular Pharmacology Branch, DTP, NCI, 2024).
# System: 996289-038-R-J1-PDC spheroid viability
# Assay: Anticancer human tumor 996289-038-R-J1-PDC patient-derived colon adenocarcinoma cell line growth inhibition [PI3K]
# Settings: spheroids with HUVEC and MSC; for IC50: curve of first compound; for viability, T/C: stronger effect = lower value
# In short: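 Spheroid viability read-out. Co-cultures contained the tumor line plus HUVEC and human MSCs. Each agent was paired with a PI3K inhibitor (inavolisib, alpelisib, duvelisib, copanlisib) across half-log dilutions starting at clinical Cmax, or at 10 microM when Cmax was unknown.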
# 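Note: spheroids exposed to compounds for seven days before viability read.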
# 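Throughout, for viability, T/C: luminescence used as a proxy for viable cell amount; percent viability relative to DMSO vehicle control as 100%.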
smiles,measurement,setting,value
Cn1cnc2c(F)c(Nc3ccc(Br)cc3Cl)c(C(=O)NOCCO)cc21 + Cc1nc(NC(=O)N2CCCC2C(N)=O)sc1-c1ccnc(C(C)(C)C(F)(F)F)c1,IC50,second compound 0.0316 µM,148 nM
same,IC50,second compound 0.1 µM,114 nM
same,IC50,second compound 0.316 µM,59.4 nM
same,IC50,second compound 1 µM,24.8 nM
same,IC50,second compound 3.16 µM,13.5 nM
same,IC50,second compound 10 µM,< 9.49 nM
same,"viability, T/C","second compound 0.0316 µM, first compound 0.00949 µM",73%
same,"viability, T/C","second compound 0.0316 µM, first compound 0.03 µM",64.4%
same,"viability, T/C","second compound 0.0316 µM, first compound 0.0949 µM",54.4%
same,"viability, T/C","second compound 0.0316 µM, first compound 0.3 µM",42.5%
same,"viability, T/C","second compound 0.0316 µM, first compound 0.949 µM",33.8%
same,"viability, T/C","second compound 0.0316 µM, first compound 3 µM",23.6%
same,"viability, T/C","second compound 0.1 µM, first compound 0.00949 µM",76.7%
same,"viability, T/C","second compound 0.1 µM, first compound 0.03 µM",70.4%
same,"viability, T/C","second compound 0.1 µM, first compound 0.0949 µM",48.6%
same,"viability, T/C","second compound 0.1 µM, first compound 0.3 µM",38.6%
same,"viability, T/C","second compound 0.1 µM, first compound 0.949 µM",30.4%
same,"viability, T/C","second compound 0.1 µM, first compound 3 µM",20.5%
same,"viability, T/C","second compound 0.316 µM, first compound 0.00949 µM",76.2%
same,"viability, T/C","second compound 0.316 µM, first compound 0.03 µM",60.6%
same,"viability, T/C","second compound 0.316 µM, first compound 0.0949 µM",41.9%
same,"viability, T/C","second compound 0.316 µM, first compound 0.3 µM",32%
same,"viability, T/C","second compound 0.316 µM, first compound 0.949 µM",26.5%
same,"viability, T/C","second compound 0.316 µM, first compound 3 µM",20.1%
same,"viability, T/C","second compound 1 µM, first compound 0.00949 µM",58.2%
same,"viability, T/C","second compound 1 µM, first compound 0.03 µM",50.5%
same,"viability, T/C","second compound 1 µM, first compound 0.0949 µM",35.3%
same,"viability, T/C","second compound 1 µM, first compound 0.3 µM",29.4%
same,"viability, T/C","second compound 1 µM, first compound 0.949 µM",22.1%
same,"viability, T/C","second compound 1 µM, first compound 3 µM",14.8%
same,"viability, T/C","second compound 3.16 µM, first compound 0.00949 µM",55.3%
same,"viability, T/C","second compound 3.16 µM, first compound 0.03 µM",39.1%
same,"viability, T/C","second compound 3.16 µM, first compound 0.0949 µM",30.1%
same,"viability, T/C","second compound 3.16 µM, first compound 0.3 µM",22.2%
same,"viability, T/C","second compound 3.16 µM, first compound 0.949 µM",16.8%
same,"viability, T/C","second compound 3.16 µM, first compound 3 µM",8.81%
same,"viability, T/C","second compound 10 µM, first compound 0.00949 µM",31.3%
same,"viability, T/C","second compound 10 µM, first compound 0.03 µM",24.8%
same,"viability, T/C","second compound 10 µM, first compound 0.0949 µM",19.1%
same,"viability, T/C","second compound 10 µM, first compound 0.3 µM",14%
same,"viability, T/C","second compound 10 µM, first compound 0.949 µM",9.2%
same,"viability, T/C","second compound 10 µM, first compound 3 µM",5.22%
Cn1ncc(Cl)c1-c1cc(C(=O)NC(CN)Cc2cccc(F)c2)sc1Cl (centres undefined) + Cc1nc(NC(=O)N2CCCC2C(N)=O)sc1-c1ccnc(C(C)(C)C(F)(F)F)c1,IC50,second compound 0.0316 µM,9680 nM
same,IC50,second compound 0.1 µM,4610 nM
same,IC50,second compound 0.316 µM,2740 nM
same,IC50,second compound 1 µM,1390 nM
same,IC50,second compound 3.16 µM,659 nM
same,IC50,second compound 10 µM,< 31.6 nM
same,"viability, T/C","second compound 0.0316 µM, first compound 0.0316 µM",76.9%
same,"viability, T/C","second compound 0.0316 µM, first compound 0.1 µM",91.2%
same,"viability, T/C","second compound 0.0316 µM, first compound 0.316 µM",78.2%
same,"viability, T/C","second compound 0.0316 µM, first compound 1 µM",63.9%
same,"viability, T/C","second compound 0.0316 µM, first compound 3.16 µM",60%
same,"viability, T/C","second compound 0.0316 µM, first compound 10 µM",47.6%
same,"viability, T/C","second compound 0.1 µM, first compound 0.0316 µM",89.2%
same,"viability, T/C","second compound 0.1 µM, first compound 0.1 µM",80.3%
same,"viability, T/C","second compound 0.1 µM, first compound 0.316 µM",78.5%
same,"viability, T/C","second compound 0.1 µM, first compound 1 µM",56%
same,"viability, T/C","second compound 0.1 µM, first compound 3.16 µM",55.9%
same,"viability, T/C","second compound 0.1 µM, first compound 10 µM",45.1%
same,"viability, T/C","second compound 0.316 µM, first compound 0.0316 µM",75.2%
same,"viability, T/C","second compound 0.316 µM, first compound 0.1 µM",87.5%
same,"viability, T/C","second compound 0.316 µM, first compound 0.316 µM",67.1%
same,"viability, T/C","second compound 0.316 µM, first compound 1 µM",58%
same,"viability, T/C","second compound 0.316 µM, first compound 3.16 µM",51.9%
same,"viability, T/C","second compound 0.316 µM, first compound 10 µM",31.5%
same,"viability, T/C","second compound 1 µM, first compound 0.0316 µM",82.4%
same,"viability, T/C","second compound 1 µM, first compound 0.1 µM",71.8%
same,"viability, T/C","second compound 1 µM, first compound 0.316 µM",63.4%
same,"viability, T/C","second compound 1 µM, first compound 1 µM",53.9%
same,"viability, T/C","second compound 1 µM, first compound 3.16 µM",42.4%
same,"viability, T/C","second compound 1 µM, first compound 10 µM",31.7%
same,"viability, T/C","second compound 3.16 µM, first compound 0.0316 µM",61%
same,"viability, T/C","second compound 3.16 µM, first compound 0.1 µM",63.6%
same,"viability, T/C","second compound 3.16 µM, first compound 0.316 µM",59.2%
same,"viability, T/C","second compound 3.16 µM, first compound 1 µM",43.4%
same,"viability, T/C","second compound 3.16 µM, first compound 3.16 µM",34.5%
same,"viability, T/C","second compound 3.16 µM, first compound 10 µM",24.9%
same,"viability, T/C","second compound 10 µM, first compound 0.0316 µM",34.8%
same,"viability, T/C","second compound 10 µM, first compound 0.1 µM",36.4%
same,"viability, T/C","second compound 10 µM, first compound 0.316 µM",41.6%
same,"viability, T/C","second compound 10 µM, first compound 1 µM",35.5%
same,"viability, T/C","second compound 10 µM, first compound 3.16 µM",27.3%
same,"viability, T/C","second compound 10 µM, first compound 10 µM",16.2%
